Among the data in PubChem BioAssay (NCI) are TGI values, retold here.

Some test systems named below: CAKI-1 renal; KM12 colon; SF-295 CNS; MDA-N; HL-60(TB) leukemia; OVCAR-4 ovarian; SNB-75 CNS; SK-MEL-28 melanoma; A498 renal; SN12C renal; EKVX NSCLC; UACC-62 melanoma; NCI-H460 lung; DU-145 prostate; TK-10 renal; HOP-62 NSCLC; SNB-19 CNS.
Common to all, as to test: growth of human tumour cells (NCI), 48 h

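Grown in 96-well plates, cells were treated for 48 hours with each compound at five concentrations. Insufficient inhibition: endpoint recorded as highest concentration tested. TGI: concentration producing complete growth inhibition.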

With `CCOC(=O)/C=C(\C(=O)OCC)n1ccc(=O)n(CC(=O)OCC)c1=O`, the TGI in the assay on CAKI-1 renal is 1.68 µM; in the assay on KM12 colon it was 30.8 µM; in the assay on SF-295 CNS, 34.6 µM; in the assay with MDA-N, 17 µM; in the assay with HL-60(TB) leukemia, 1.22 µM; with OVCAR-4 ovarian, greater than 31.2 µM. The TGI amounted to 24.5 µM in the assay with SNB-75 CNS; 15.7 µM in the assay with SK-MEL-28 melanoma; 31.7 µM in the assay on A498 renal; 9.38 µM in the assay on SN12C renal; 35.5 µM in the assay on EKVX NSCLC; 19.2 µM with UACC-62 melanoma. The TGI in the assay with NCI-H460 lung was determined as 32.2 µM; in the assay on DU-145 prostate, 31.1 µM; in the assay with TK-10 renal, 6.04 µM; in the assay with HOP-62 NSCLC, 38.7 µM; with SNB-19 CNS, 36.7 µM.
In the case of `C=C1C(=O)O[C@H]2[C@H]3O[C@@H](C[C@@H]12)[C@@]1(C)CC[C@H](O1)C(C)=CCC[C@H]3C`, the TGI is 2.56 µM with CAKI-1 renal; 3.76 µM in the assay on KM12 colon; 17.9 µM with SF-295 CNS; 3 µM in the assay with MDA-N; 1.03 µM with HL-60(TB) leukemia; 3.27 µM in the assay with OVCAR-4 ovarian. Moreover, the TGI in the assay on SNB-75 CNS was determined as 5.65 µM; in the assay with SK-MEL-28 melanoma it was 3.36 µM; with A498 renal, 3.15 µM; in the assay with SN12C renal, 4.05 µM; in the assay with EKVX NSCLC it was 3.32 µM; with UACC-62 melanoma, 4.05 µM. Also, the TGI came out at 7.26 µM in the assay on NCI-H460 lung; 2.86 µM with DU-145 prostate; 2.93 µM with TK-10 renal; 19.1 µM in the assay on HOP-62 NSCLC; 19 µM in the assay on SNB-19 CNS.
Turning to `CC(=O)N(CN1C(=O)CCC1C(=O)O)c1cccc(O)c1` (stereo unspecified), the TGI in the assay on CAKI-1 renal, in the assay on KM12 colon, in the assay with SF-295 CNS, in the assay with MDA-N, in the assay on HL-60(TB) leukemia and with OVCAR-4 ovarian was greater than 100 µM each time. The TGI in the assay with SNB-75 CNS, with SK-MEL-28 melanoma, in the assay with A498 renal, in the assay with SN12C renal, in the assay on EKVX NSCLC and with UACC-62 melanoma was greater than 100 µM throughout. Also, the TGI in the assay on NCI-H460 lung, with DU-145 prostate, with TK-10 renal, in the assay with HOP-62 NSCLC and in the assay with SNB-19 CNS was greater than 100 µM throughout.
In the case of `Nc1nc(N)c2[nH]cnc2n1` (tested in a mixture with another compound), the TGI with CAKI-1 renal, in the assay with KM12 colon, in the assay with SF-295 CNS, in the assay with MDA-N, in the assay with HL-60(TB) leukemia and with OVCAR-4 ovarian was greater than 100 µM throughout. In addition, the TGI was greater than 100 µM in the assay on SNB-75 CNS; greater than 100 µM in the assay with SK-MEL-28 melanoma; 45.1 µM in the assay with A498 renal; greater than 100 µM in the assay on SN12C renal; 60.1 µM in the assay on EKVX NSCLC; 24.9 µM in the assay with UACC-62 melanoma. The TGI with NCI-H460 lung was 63.4 µM; with DU-145 prostate it was greater than 100 µM; in the assay on TK-10 renal it was 80.7 µM; in the assay with HOP-62 NSCLC, greater than 100 µM; with SNB-19 CNS, greater than 100 µM.
For `CCSc1nc(=[N+]2CCCC2)ss1`, the TGI in the assay on CAKI-1 renal was greater than 100 µM; in the assay with KM12 colon it was greater than 100 µM; in the assay with SF-295 CNS it was greater than 100 µM; in the assay with MDA-N it was greater than 100 µM; in the assay on HL-60(TB) leukemia it was 26.6 µM; in the assay on OVCAR-4 ovarian it was greater than 100 µM. Further, the TGI with SNB-75 CNS is greater than 96.6 µM; with SK-MEL-28 melanoma, greater than 100 µM; with A498 renal, greater than 100 µM; in the assay on SN12C renal, greater than 100 µM; in the assay with EKVX NSCLC, greater than 100 µM; in the assay on UACC-62 melanoma, 23.9 µM. Moreover, the TGI in the assay with NCI-H460 lung, in the assay on DU-145 prostate, in the assay on TK-10 renal, in the assay with HOP-62 NSCLC and with SNB-19 CNS was greater than 100 µM in each case.
Regarding `CCOP(=O)(OCC)C1=C(c2ccccc2)OC(N)=C(C#N)C1c1ccc(Cl)cc1` (stereo unspecified), the TGI in the assay with CAKI-1 renal, in the assay with KM12 colon, in the assay with SF-295 CNS, in the assay on MDA-N, in the assay on HL-60(TB) leukemia and in the assay on OVCAR-4 ovarian was greater than 100 µM throughout. In addition, the TGI in the assay with SNB-75 CNS, in the assay with SK-MEL-28 melanoma, in the assay on A498 renal, with SN12C renal, with EKVX NSCLC and in the assay on UACC-62 melanoma was greater than 100 µM throughout. The TGI with NCI-H460 lung, in the assay with DU-145 prostate, in the assay on TK-10 renal, in the assay with HOP-62 NSCLC and with SNB-19 CNS was greater than 100 µM throughout.
With `CCN(CC)C(=S)N=Nc1c(O)[nH]c2ccccc12`, the TGI with CAKI-1 renal is 5.98 µM; in the assay on KM12 colon, 10.5 µM; in the assay on SF-295 CNS, 11.5 µM; in the assay on MDA-N it was 16.5 µM; in the assay with HL-60(TB) leukemia, 3.7 µM; in the assay on OVCAR-4 ovarian, 11.9 µM. The TGI in the assay with SNB-75 CNS is 11.2 µM; in the assay with SK-MEL-28 melanoma, greater than 100 µM; in the assay on A498 renal, 3.64 µM; with SN12C renal, 14.2 µM; in the assay on EKVX NSCLC, 11.5 µM; with UACC-62 melanoma, 6.38 µM. Moreover, the TGI was 3.08 µM with NCI-H460 lung; greater than 100 µM with DU-145 prostate; 5.07 µM with TK-10 renal; 12.6 µM in the assay with HOP-62 NSCLC; 16 µM in the assay on SNB-19 CNS.
Take `Oc1ccc(/C=C/c2ccc3cccc(O)c3n2)cc1O`: the TGI is greater than 100 µM in the assay with CAKI-1 renal; 33 µM with KM12 colon; 76.9 µM in the assay on SF-295 CNS; 44.7 µM in the assay on MDA-N; greater than 100 µM in the assay on HL-60(TB) leukemia; greater than 100 µM in the assay with OVCAR-4 ovarian. The TGI was 9.65 µM in the assay with SNB-75 CNS; 89.5 µM with SK-MEL-28 melanoma; 30 µM in the assay with A498 renal; 12.8 µM with SN12C renal; 30.8 µM in the assay with EKVX NSCLC; 23.8 µM in the assay with UACC-62 melanoma. For the same compound, the TGI in the assay on NCI-H460 lung is 13.9 µM; in the assay with DU-145 prostate, 12.3 µM; with TK-10 renal it was 90.8 µM; in the assay on HOP-62 NSCLC, 84.6 µM; in the assay with SNB-19 CNS, 20.9 µM.
